Assay results taken from patent US12545652B2, “Crystalline forms of a TYK2 inhibitor” (Sareum Limited, priority 2020, dated 2026).
In brackets after ≈: the same amount, converted by molar mass.

Legend:
Assay type in all cases: physicochemical
[1] = Solubility at 25° C. by HPLC of filtrates after equilibration of Form A in solvents; settings: for solubility: 25 °C, organic solvent or mixture, thermodynamic from solid
[2] = Dynamic vapour sorption (DVS); settings: 25° C.
Protocol: Sorption isotherms were obtained using a Hiden Isochema moisture sorption analyser (model IGAsorp), controlled by IGAsorp Systems Software V6.50.48. The sample was maintained at a constant temperature (25° C.) by the instrument controls. The humidity was controlled by mixing streams of dry and wet nitrogen, with a total flow of 250 ml·min^−1. The instrument was verified for relative humidity content by measuring three calibrated Rotronic salt solutions (10-50-88%). The weight change of the sample was monitored as a function of humidity by a microbalance (accuracy +/−0.005 mg). A defined amount of sample was placed in a tared mesh stainless steel basket under ambient conditions. A full experimental cycle typically consisted of three scans (sorption, desorption and sorption) at a constant temperature (25° C.) and 10% RH intervals over a 0-90% range (60 minutes for each humidity level).

[3] = Compression stability test (10×10^4N force)
Protocol: Compression stability tests were carried out on samples from two batches of crystalline Form A and samples from two batches of Crystalline Form B. One pair of samples of Form A and Form B was subjected to compression under 10×10^4N force for 23 and 23¾ hours respectively to assess the impact upon form fate and chemical stability.
The other pair of samples of Form A and Form B was subjected to similar compression pressures over an extended duration of 7 days to assess the impact of prolonged compression force upon form fate and chemical stability.

[4] = Rapidly cooled, reverse anti-solvent addition crystallisation at −10° C., observations and form fate by XRPD; settings: for Observation: −10° C., 30 vol. anti-solvent; for Crystalline Form fate by XRPD: Reverse addition to anti-solvent at −10° C.
Protocol: Anti-solvent crystallisation was carried out by dissolving 2-(2,6-dichlorophenyl)-5-[4-(1,1-dioxo-1,4-thiazinane-4-carbonyl)anilino]oxazole-4-carboxamide in a solvent with heating, clarifying the solution and adding cold anti-solvent using the following method.
2-(2,6-dichlorophenyl)-5-[4-(1,1-dioxo-1,4-thiazinane-4-carbonyl)anilino]oxazole-4-carboxamide, 4×153-155 mg, was weighed into four crystallisation tubes and a different solvent (see Table 10) was charged into each. The mixtures were heated to 60° C. to achieve dissolution and then clarified.
Three anti-solvents (see Table 10), 1.5 ml, were each charged to four crystallisation tubes and cooled to −10° C.
The clarified solutions of 2-(2,6-dichlorophenyl)-5-[4-(1,1-dioxo-1,4-thiazinane-4-carbonyl)anilino]oxazole-4-carboxamide at 60° C. were charged to the cold anti-solvents in aliquots containing ca. 50 mg of the compound (into ca. 30 vol. anti-solvent) and immediate observations were noted.
The resulting mixtures were equilibrated at −10° C. for ca. 22 hours, observations were made and the solids were isolated. All isolated solids were dried in vacuo under air for ca. 20 minutes and then dried in vacuo at 45° C. for 23½ hours.

NC(=O)c1nc(-c2c(Cl)cccc2Cl)oc1Nc1ccc(C(=O)N2CCS(=O)(=O)CC2)cc1 [Form A, 2-(2,6-dichlorophenyl)-5-[4-(1,1-dioxo-1,4-thiazinane-4-carbonyl)anilino]oxazole-4-carboxamide]
Solubility at 25° C. ([1]; 2-Chlorobutane): 290 µg/mL (≈ 0.569 mM)
solubility ([1]; 4:1 IPA/water, 4:1 IPA/water): 7650 µg/mL (≈ 15 mM)
solubility ([1]; 4:1 MeCN/water, 4:1 MeCN/water): 19800 µg/mL (≈ 38.8 mM)
Solubility at 25° C. ([1]; 4:1 THF/water): >67000 µg/mL
Solubility at 25° C. ([1]; Anisole): 10610 µg/mL (≈ 20.8 mM)
solubility ([1]; CPME): 1870 µg/mL (≈ 3.67 mM)
Solubility at 25° C. ([1]; Cyclohexane): 10 µg/mL (≈ 0.0196 mM)
Solubility at 25° C. ([1]; DCM): 22830 µg/mL (≈ 44.8 mM)
solubility ([1]; EtOAc): 6640 µg/mL (≈ 13 mM)
solubility ([1]; EtOH): 5200 µg/mL (≈ 10.2 mM)
solubility ([1]; IPA): 2450 µg/mL (≈ 4.81 mM)
solubility ([1]; MEK): 6080 µg/mL (≈ 11.9 mM)
solubility ([1]; MIBK): 7400 µg/mL (≈ 14.5 mM)
solubility ([1]; MeCN): 9160 µg/mL (≈ 18 mM)
solubility ([1]; MeOH): 2520 µg/mL (≈ 4.95 mM)
Solubility at 25° C. ([1]; Nitromethane): 20520 µg/mL (≈ 40.3 mM)
Solubility at 25° C. ([1]; TBME): 700 µg/mL (≈ 1.37 mM)
Solubility at 25° C. ([1]; THF): 33300 µg/mL (≈ 65.4 mM)
Solubility at 25° C. ([1]; Water): 60 µg/mL (≈ 0.118 mM)
solubility ([1]; benzotrifluoride): 160 µg/mL (≈ 0.314 mM)
solubility ([1]; chlorobenzene): 1870 µg/mL (≈ 3.67 mM)
solubility ([1]; iPrOAc): 6960 µg/mL (≈ 13.7 mM)
solubility ([1]; toluene): 1120 µg/mL (≈ 2.2 mM)
DVS total weight gain upon sorption ([2]; from 0 to 90% RH): ca. 3.25 wt %
DVS weight reduction upon the first desorption ([2]; from 50 to 0% RH): ca. 2.75 wt %
HPLC assessment post-compression (chemical stability) ([3]; compression for 7 days): significant chemical degradation
XRPD examination of solids isolated post-compression (form fate) ([3]; compression for both ca. 1 and 7 days): diffraction pattern matching the input Form A but of reduced diffraction resolution
HPLC assessment post-compression (chemical stability) ([3]; compression for ca. 1 day (23 / 23¾ hours), 10×10^4N): no discernible chemical degradation
Observation ([4]; ID A1, THF/water, 4:1 10 vol., Heptane, 5 Hrs): Suspension
Observation ([4]; ID A1, THF/water, 4:1 10 vol., Heptane, 22 Hrs): Suspension
Observation ([4]; ID A1, THF/water, 4:1 10 vol., Heptane, Immediate): Gum
Observation ([4]; ID A2, THF/water, 4:1 10 vol., Benzotrifluoride, 5 Hrs): Suspension
Observation ([4]; ID A2, THF/water, 4:1 10 vol., Benzotrifluoride, 22 Hrs): Suspension
Observation ([4]; ID A2, THF/water, 4:1 10 vol., Benzotrifluoride, Immediate): Suspension
Observation ([4]; ID A3, THF/water, 4:1 10 vol., 2-Chlorobutane, 5 Hrs): Suspension
Observation ([4]; ID A3, THF/water, 4:1 10 vol., 2-Chlorobutane, 22 Hrs): Suspension
Observation ([4]; ID A3, THF/water, 4:1 10 vol., 2-Chlorobutane, Immediate): Suspension
Observation ([4]; ID B1, THF 25 vol., Heptane, 5 Hrs): Suspension
Observation ([4]; ID B1, THF 25 vol., Heptane, 22 Hrs): Suspension
Observation ([4]; ID B1, THF 25 vol., Heptane, Immediate): Suspension
Observation ([4]; ID B2, THF 25 vol., Benzotrifluoride, 5 Hrs): Suspension
Observation ([4]; ID B2, THF 25 vol., Benzotrifluoride, 22 Hrs): Suspension
Observation ([4]; ID B2, THF 25 vol., Benzotrifluoride, Immediate): Suspension
Observation ([4]; ID B3, THF 25 vol., 2-Chlorobutane, 5 Hrs): Suspension
Observation ([4]; ID B3, THF 25 vol., 2-Chlorobutane, 22 Hrs): Suspension
Observation ([4]; ID B3, THF 25 vol., 2-Chlorobutane, Immediate): Suspension
Observation ([4]; ID C1, Nitromethane 50 vol., Heptane, 5 Hrs): Bi. Susp.
Observation ([4]; ID C1, Nitromethane 50 vol., Heptane, 22 Hrs): Bi. Susp.
Observation ([4]; ID C1, Nitromethane 50 vol., Heptane, Immediate): Immiscible
Observation ([4]; ID C2, Nitromethane 50 vol., Benzotrifluoride, 5 Hrs): Solution
Observation ([4]; ID C2, Nitromethane 50 vol., Benzotrifluoride, 22 Hrs): Suspension
Observation ([4]; ID C2, Nitromethane 50 vol., Benzotrifluoride, Immediate): Solution
Observation ([4]; ID C3, Nitromethane 50 vol., 2-Chlorobutane, 5 Hrs): Solution
Observation ([4]; ID C3, Nitromethane 50 vol., 2-Chlorobutane, 22 Hrs): Haze
Observation ([4]; ID C3, Nitromethane 50 vol., 2-Chlorobutane, Immediate): Solution
Observation ([4]; ID D1, MeCN/water, 4:1 55 vol., Heptane, 5 Hrs): Bi. Susp.
Observation ([4]; ID D1, MeCN/water, 4:1 55 vol., Heptane, 22 Hrs): Bi. Susp.
Observation ([4]; ID D1, MeCN/water, 4:1 55 vol., Heptane, Immediate): Immiscible
Observation ([4]; ID D2, MeCN/water, 4:1 55 vol., Benzotrifluoride, 5 Hrs): Suspension
Observation ([4]; ID D2, MeCN/water, 4:1 55 vol., Benzotrifluoride, 22 Hrs): Suspension
Observation ([4]; ID D2, MeCN/water, 4:1 55 vol., Benzotrifluoride, Immediate): Haze
Observation ([4]; ID D3, MeCN/water, 4:1 55 vol., 2-Chlorobutane, 5 Hrs): Suspension
Observation ([4]; ID D3, MeCN/water, 4:1 55 vol., 2-Chlorobutane, 22 Hrs): Suspension
Observation ([4]; ID D3, MeCN/water, 4:1 55 vol., 2-Chlorobutane, Immediate): Haze
Crystalline Form fate by XRPD ([4]; MeCN/water, 4:1 55 vol., 2-Chlorobutane): Form B
Crystalline Form fate by XRPD ([4]; MeCN/water, 4:1 55 vol., Benzotrifluoride): Form B
Crystalline Form fate by XRPD ([4]; MeCN/water, 4:1 55 vol., Heptane): Form A
Crystalline Form fate by XRPD ([4]; Nitromethane 50 vol., 2-Chlorobutane): Form B/C mix
Crystalline Form fate by XRPD ([4]; Nitromethane 50 vol., Benzotrifluoride): Form C
Crystalline Form fate by XRPD ([4]; Nitromethane 50 vol., Heptane): Form C
Crystalline Form fate by XRPD ([4]; THF 25 vol., 2-Chlorobutane): Low cryst. Form C
Crystalline Form fate by XRPD ([4]; THF 25 vol., Benzotrifluoride): Low cryst. Form B
Crystalline Form fate by XRPD ([4]; THF 25 vol., Heptane): Low cryst. Form B +
Crystalline Form fate by XRPD ([4]; THF/water, 4:1 10 vol., 2-Chlorobutane): Low cryst. Form B
Crystalline Form fate by XRPD ([4]; THF/water, 4:1 10 vol., Benzotrifluoride): Low cryst. Form B
Crystalline Form fate by XRPD ([4]; THF/water, 4:1 10 vol., Heptane): Low cryst. Form B
